From ChEMBL document CHEMBL1201862, “PubChem BioAssay data set” (2004)
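Briefly, cells in 96-well plates were exposed to five compound concentrations for 48 h, and endpoints were estimated by linear interpolation. GI50: concentration for 50% inhibition of growth.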 Activity calls are given as the source filed them. Cut-off read from the data, not from the text of the source: active = GI50 up to about 1.1 µM and inactive = higher.

Columns and labels:
Assay in all cases: NCI-60 cell line screen, 48 h
A549 = tested on: A549
MDA-MB-435 = tested on: MDA-MB-435
MDA-MB-231 = tested on: MDA-MB-231
SK-MEL-5 = tested on: SK-MEL-5
CCRF-CEM = tested on: CCRF-CEM
BT-549 = tested on: BT-549
CAKI-1 = tested on: CAKI-1
PC-3 = tested on: PC-3
SNB-19 = tested on: SNB-19
HOP-92 = tested on: HOP-92
SK-MEL-28 = tested on: SK-MEL-28
NCI-H226 = tested on: NCI-H226
COLO 205 = tested on: COLO 205
RXF 393 = tested on: RXF 393
OVCAR-8 = tested on: OVCAR-8
NCI-H460 = tested on: NCI-H460
MDA-N = tested on: MDA-N
MCF7 = tested on: MCF7
IGROV-1 = tested on: IGROV-1

| Structure (SMILES) | GI50 (A549) | GI50 (MDA-MB-435) | GI50 (MDA-MB-231) | GI50 (SK-MEL-5) | GI50 (CCRF-CEM) | GI50 (BT-549) | GI50 (CAKI-1) | GI50 (PC-3) | GI50 (SNB-19) | GI50 (HOP-92) | GI50 (SK-MEL-28) | GI50 (NCI-H226) | GI50 (COLO 205) | GI50 (RXF 393) | GI50 (OVCAR-8) | GI50 (NCI-H460) | GI50 (MDA-N) | GI50 (MCF7) | GI50 (IGROV-1) |
| --- | --- | --- | --- | --- | --- | --- | --- | --- | --- | --- | --- | --- | --- | --- | --- | --- | --- | --- | --- |
| CCN(CC)C(=S)SNCCc1ccc(S(N)(=O)=O)cc1 | 11.9 µM (inactive) | 14.7 µM (inactive) | 14.7 µM (inactive) | 11.2 µM (inactive) | 0.169 µM (active) | 16 µM (inactive) | 14 µM (inactive) | 13.9 µM (inactive) | 20 µM (inactive) | 17.5 µM (inactive) | 9.23 µM (inactive) | 42.7 µM (inactive) | 29.2 µM (inactive) | 7.57 µM (inactive) | 12.6 µM (inactive) | 22.4 µM (inactive) | 18.3 µM (inactive) | – | – |
| C[N+](C)(N)Cc1csc(-c2ccc(Cl)cc2)n1 | 71.8 µM (inactive) | > 100 µM (inactive) | > 100 µM (inactive) | 61.5 µM (inactive) | – | 34 µM (inactive) | > 100 µM (inactive) | > 100 µM (inactive) | > 100 µM (inactive) | > 100 µM (inactive) | > 100 µM (inactive) | 48.2 µM (inactive) | > 100 µM (inactive) | > 100 µM (inactive) | > 100 µM (inactive) | > 100 µM (inactive) | > 100 µM (inactive) | > 100 µM (inactive) | > 100 µM (inactive) |
| CC(NC(=O)C(N)CC(=O)O)NC(=O)C1CCC1 (centres undefined) | > 100 µM (inactive) | > 100 µM (inactive) | > 100 µM (inactive) | > 100 µM (inactive) | > 100 µM (inactive) | > 100 µM (inactive) | > 100 µM (inactive) | > 100 µM (inactive) | > 100 µM (inactive) | – | > 100 µM (inactive) | > 100 µM (inactive) | > 100 µM (inactive) | > 100 µM (inactive) | > 100 µM (inactive) | > 100 µM (inactive) | > 100 µM (inactive) | > 100 µM (inactive) | > 10 µM (inactive) |
| CSc1c(C(=O)Nc2ccc(C)cc2)c(N)nn1-c1ccccc1 | 27.3 µM (inactive) | > 100 µM (inactive) | 40.6 µM (inactive) | > 100 µM (inactive) | > 100 µM (inactive) | 43.2 µM (inactive) | 23.4 µM (inactive) | 39.5 µM (inactive) | 26.7 µM (inactive) | 23.6 µM (inactive) | 55.1 µM (inactive) | > 100 µM (inactive) | > 100 µM (inactive) | 26.4 µM (inactive) | – | 3.55 µM (inactive) | > 100 µM (inactive) | > 100 µM (inactive) | 36.1 µM (inactive) |
| CCOC(=O)C(=[N+]=[N-])C(=O)CSC#N | 97.7 µM (inactive) | 22.6 µM (inactive) | 82.2 µM (inactive) | 35.5 µM (inactive) | 35.1 µM (inactive) | 86.9 µM (inactive) | 32.7 µM (inactive) | > 100 µM (inactive) | 97.5 µM (inactive) | – | > 100 µM (inactive) | 40.6 µM (inactive) | > 100 µM (inactive) | > 100 µM (inactive) | 46 µM (inactive) | – | 36 µM (inactive) | 38.4 µM (inactive) | > 100 µM (inactive) |
| CCOC(=O)C1(C/C=C\CBr)CCCCCCCCCCC1=O (centres undefined) | 18 µM (inactive) | 12 µM (inactive) | 3.36 µM (inactive) | 12.8 µM (inactive) | 5.69 µM (inactive) | 15.3 µM (inactive) | 13.9 µM (inactive) | 10.4 µM (inactive) | 14.3 µM (inactive) | – | 15.7 µM (inactive) | 2.88 µM (inactive) | 17.5 µM (inactive) | 11.2 µM (inactive) | 14.5 µM (inactive) | 15.5 µM (inactive) | 11.9 µM (inactive) | 12.9 µM (inactive) | 2.94 µM (inactive) |
| c1ccc2c3c([nH]c2c1)C1c2[nH]c4ccccc4c2CCN1CC3 | 14.7 µM (inactive) | 15.2 µM (inactive) | 14.7 µM (inactive) | 13.6 µM (inactive) | 13.5 µM (inactive) | 16.1 µM (inactive) | 18.7 µM (inactive) | 12.9 µM (inactive) | – | 2.03 µM (inactive) | 15.2 µM (inactive) | 14.7 µM (inactive) | 3.79 µM (inactive) | 13.6 µM (inactive) | 8.18 µM (inactive) | 6.85 µM (inactive) | 18.1 µM (inactive) | 10.1 µM (inactive) | 12.7 µM (inactive) |
